From US20240376124A1, “Macrocyclic Kinase Inhibitors” (Incyte Corporation, priority 2023, published 2024) come the findings set out here.

For this series the following is noted: from [2H]C([2H])([2H])n1c(=O)n([C@H]2CC[C@@](CC=C)(NC(=O)[C@H]3C[C@H]3F)CC2)c2c3c(-c4ccc(OCCC=C)cc4)cn(S(=O)(=O)c4ccccc4)c3ncc21, rcm bond, Grubbs catalyst 2nd generation, dichloromethane, 19.0 mM, 40.0 °C.

The structures appear in SMILES notation.

Consider `[2H]C([2H])([2H])n1c(=O)n2c3c4c(cn(S(=O)(=O)c5ccccc5)c4ncc31)-c1ccc(cc1)OCCC=CC[C@]1(NC(=O)[C@H]3C[C@H]3F)CC[C@@H]2CC1`, for which the ring closure, yield of all isomers was 98%.
